Patent publication US8557800B2, “Sphingosine kinase inhibitors” (Apogee Biotechnology Corporation, priority 2005, dated 2013)
Like-named read-outs stand apart in the source and are kept apart here.

Legend:
[1] = system: MCF-10A non-transformed human breast epithelial cells; test: Cytotoxicity, SRB binding assay; format: cell-based; settings: inhibition of cell proliferation, 48 h, read-out: MCF-10A IC50
How it was run: (§1)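 Cells exposed to varying compound doses for 48 h, then survival measured by sulforhodamine B staining. IC50 is the concentration giving 50% proliferation inhibition, in μM, as mean±sd of replicate trials.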

[2] = system: MCF-7 human breast adenocarcinoma cells; test: Cytotoxicity, SRB binding assay; format: cell-based; settings: MCF7, inhibition of cell proliferation, 48 h, read-out: MCF-7 IC50
How it was run: as §1

DU145 (prostate) = test: Human tumor cell line panel, sulforhodamine B; format: cell-based; settings: DU-145, 48 hours, mean ± sd
Hep-G2 (liver) = test: Human tumor cell line panel, sulforhodamine B; format: cell-based; settings: HepG2, 48 hours, mean ± sd
Panc-1 (pancreas) = test: Human tumor cell line panel, sulforhodamine B; format: cell-based; settings: 48 hours, mean ± sd
[3] = Oral pharmacokinetics in mice (PEG400); format: in vivo; settings: mouse, blood, 100 mg/kg oral gavage in PEG400, female Swiss-Webster mice
Procedure: Oral pharmacokinetic studies were performed on Compounds 62 and 57. Each compound was dissolved in PEG400 and administered to female Swiss-Webster mice at a dose of 100 mg/kg by oral gavage. Mice were anesthetized and blood was removed via cardiac puncture at 5 minutes, 30 minutes, 1, 2, and 8 hours. Concentrations of the test compounds were determined using liquid-liquid extraction, appropriate internal standards and reverse phase HPLC with UV detection. Control blood samples were run to identify compound-specific peaks. Pharmacokinetic parameters were calculated using the WINNONLIN analysis software package (Pharsight). Non-compartmental and compartmental models were tested, with the results shown in Table 7 derived from the best fit equations.

[4] = system: VEGF-induced vascular leakage; test: VEGF-induced vascular permeability (Miles assay); format: in vivo, mouse; settings: 75 mg/kg intraperitoneal or 100 mg/kg oral gavage, nude mice
Procedure: The effects of VEGF on vascular leakage in vivo were measured as described by Miles and Miles (Miles et al., 1952, J Physiol 118: 228). Groups of female athymic nude mice (approximately 20 g) were given intraperitoneal injections of DMSO alone or Compound 62 (75 mg/kg) in a volume of 50 microliters. In some experiments, Compound 62 was administered by oral gavage at a dose of 100 mg/kg. After 30 minutes, 100 μL of 0.5% Evan's blue dye in PBS was administered by tail vein injection. Thirty minutes later, mice received the first of 3 sequential (every 30 minutes) intradermal injections of VEGF (400 ng in 20 μL of PBS per injection) on the left hind flank. As a control, similar injections of PBS were administered on the right hind flank. Thirty minutes after the last injection, leakage of the dye from the vasculature into the skin was assessed by measuring the length and width of the spots of blue-colored skin using calipers.

[5] = system: female DBA/1 mice, collagen-induced arthritis; test: Collagen-Induced Arthritis (CIA) model; format: in vivo, mouse; settings: Day 12
Procedure: The anti-arthritis activities of the SK inhibitor Compound 62 were assessed in the Collagen-Induced Arthritis (CIA) model. Female DBA/1 mice were injected subcutaneously in the tail with chicken immunization-grade type II collagen (Chondrex) emulsified in complete Freund's adjuvant (Sigma) at 2 mg/mL. Three weeks later, the mice received a collagen booster in incomplete Freund's adjuvant and were monitored daily thereafter for arthritic symptoms. […] The severity of disease in each animal was quantified by measurement of the hind paw volume with digital calipers. […] Differences among treatment groups were tested using ANOVA.

[6] = system: male Lewis rats, adjuvant-induced arthritis; test: Adjuvant-induced arthritis model; format: in vivo, rat
Procedure: Adjuvant-induced arthritis is another widely used assay that recapitulates many features of human rheumatoid arthritis, and so is useful in the evaluation of new drug candidates. Age- and weight-matched male Lewis rats (150-170 g) were injected subcutaneously in the tail with 1 mg of Mycobacterium butyricum (Difco, killed dried) suspended in 0.1 ml of light mineral oil. Symptoms of immune reactivity were present after 2 weeks. Responsive rats were randomized into treatment groups, and received oral daily doses (1 ml) of: solvent alone (0.375% Tween-80); 100 mg/kg Compound 62; 35 mg/kg Compound 62; or 5 mg/kg Compound 62, or intraperitoneal injections of indomethacin (5 mg/kg) every other day as a positive control. The severity of disease in each animal was quantified by measurement of the hind paw thickness.

[7] = 100 mg/kg orally each day 6 days per week

Work on O=C(NCc1ccncc1)C12CC3CC(C1)CC(c1ccc(Cl)cc1)(C3)C2 [Compound 62, 3-(4-Chloro-phenyl)-adamantane-1-carboxylic acid (pyridin-4-ylmethyl)-amide] yielded an IC50 [1] of 21 µM, an IC50 [2] of 17 µM and an IC50 (DU145 (prostate)) of 21.9 ± 1.5 µM. For the same compound, the IC50 (Hep-G2 (liver)) was 6 ± 2.6 µM, the IC50 (Panc-1 (pancreas)) was 32.8 ± 0.1 µM and the Cmax [3] was 55.8 µM. It also gave a Tmax [3] of 0.5 h, a half-life [3] of 7.3 h and an AUC(0-inf) ([3]; read-out: AUC0→∞ (μM * h)) of 452 µM·h. The AUC(0-inf) ([3]; read-out: AUC0→∞ (μg * h/mL)) was 172 µg·h/mL, the “vascular leakage in response to VEGF” value [4] was “markedly reduced” and the “reduction in clinical score vs vehicle” value [5, 7] was 67%. The “reduction in the increase in hind paw thickness vs vehicle” value [5, 7] was 90%, the “histologic damage of tibiotarsal joints” value ([5]; 100 mg/kg orally) was “significantly reduced” and the “reduction in the arthritic response (hind paw thickness)” value (from here on “reduction in the arthritic response”) ([6]; 5 mg/kg oral daily) was 13%. For the same compound, the “reduction in the arthritic response” value ([6]; 35 mg/kg oral daily) was 42% and the “reduction in the arthritic response” value ([6]; 100 mg/kg oral daily) was 76%.
